Source: the supplement of paper PMC13380429

Columns and labels:
Conditions in all cases: 72 h
Caco-2 [1] = assay: relative viability EC50 (midpoint between 100% and the lowest measured viability); higher = less toxic
Vero E6 [2] = assay: as above
U2OS [3] = assay: as above
HepG2 [4] = assay: as above
Calu-3 [5] = assay: as above
Caco-2 [6] = assay: drug sensitivity score (DSS) for viability; higher = more toxic; extreme values may be limits of the assay
Vero E6 [7] = assay: as above
U2OS [8] = assay: as above
HepG2 [9] = assay: as above
Calu-3 [10] = assay: as above
Caco-2 [11] = assay: cell viability relative to DMSO; higher = less toxic
Vero E6 [12] = assay: as above
U2OS [13] = assay: as above
HepG2 [14] = assay: as above
Calu-3 [15] = assay: as above

Row | SMILES | relative viability EC50 (Caco-2 [1]) | relative viability EC50 (Vero E6 [2]) | relative viability EC50 (U2OS [3]) | relative viability EC50 (HepG2 [4]) | relative viability EC50 (Calu-3 [5]) | drug sensitivity score (Caco-2 [6]) | drug sensitivity score (Vero E6 [7]) | drug sensitivity score (U2OS [8]) | drug sensitivity score (HepG2 [9]) | drug sensitivity score (Calu-3 [10]) | cell viability (Caco-2 [11]; 1 nM) | cell viability (Caco-2 [11]; 10 nM) | cell viability (Caco-2 [11]; 100 nM) | cell viability (Caco-2 [11]; 1000 nM) | cell viability (Caco-2 [11]; 10000 nM) | cell viability (Vero E6 [12]; 1 nM) | cell viability (Vero E6 [12]; 10 nM) | cell viability (Vero E6 [12]; 100 nM) | cell viability (Vero E6 [12]; 1000 nM) | cell viability (Vero E6 [12]; 10000 nM) | cell viability (U2OS [13]; 1 nM) | cell viability (U2OS [13]; 10 nM) | cell viability (U2OS [13]; 100 nM) | cell viability (U2OS [13]; 1000 nM) | cell viability (U2OS [13]; 10000 nM) | cell viability (HepG2 [14]; 1 nM) | cell viability (HepG2 [14]; 10 nM) | cell viability (HepG2 [14]; 100 nM) | cell viability (HepG2 [14]; 1000 nM) | cell viability (HepG2 [14]; 10000 nM) | cell viability (Calu-3 [15]; 1 nM) | cell viability (Calu-3 [15]; 10 nM) | cell viability (Calu-3 [15]; 100 nM) | cell viability (Calu-3 [15]; 1000 nM) | cell viability (Calu-3 [15]; 10000 nM)
1 | CC(C)N1Cc2cc(S(C)(=O)=O)ccc2N(CCN2CC=C(c3c[nH]c4cc(F)ccc34)CC2)S1(=O)=O | > 10 µM | > 10 µM | > 10 µM | > 10 µM | > 10 µM | 0 | 0 | 0 | 0 | 0 | 98.3% | 98.8% | 102% | 91.2% | 104% | 89.6% | 97.7% | 94.1% | 94.7% | 97.6% | 99.9% | 99.1% | 103% | 95.8% | 95.2% | 99.9% | 107% | 95.8% | 105% | 100% | 98.6% | 99.3% | 92.7% | 107% | 110%
2 | CC(C)n1cnc2c(C(=O)N[C@H]3CN4CCC3CC4)cc(Cl)cc21 | > 10 µM | > 10 µM | > 10 µM | > 10 µM | > 10 µM | 0 | 0 | 0 | 0 | 0 | 106% | 106% | 94.4% | 101% | 94.9% | 100% | 95.8% | 97.5% | 94.9% | 100% | 104% | 103% | 97.1% | 105% | 97.8% | 116% | 102% | 104% | 98.2% | 97.6% | 93.9% | 101% | 84.9% | 92.9% | 90.6%
3 | CCOc1ccc(-c2ccc(Cn3c(CC(C)(C)C(=O)O)c(SC(C)(C)C)c4cc(OCc5ccc(C)cn5)ccc43)cc2)cn1 | > 10 µM | > 10 µM | > 10 µM | > 10 µM | > 10 µM | 0 | 1.3 | 1 | 1 | 0 | 98.4% | 98.8% | 105% | 103% | 88.9% | 98.6% | 95.4% | 90.1% | 94% | 76.1% | 100% | 106% | 96.6% | 97.8% | 78.2% | 104% | 104% | 102% | 86.2% | 95.7% | 107% | 105% | 111% | 112% | 99.9%
4 | CN1CCc2cc(Cl)c(O)cc2[C@@H](c2ccccc2)C1 | > 10 µM | > 10 µM | > 10 µM | > 10 µM | > 10 µM | 0 | 0 | 0 | 0 | 0 | 96.3% | 93.2% | 96.3% | 100% | 99.1% | 95.6% | 95% | 93.5% | 85.1% | 102% | 97.5% | 100% | 97.8% | 102% | 101% | 98.2% | 96.3% | 97.2% | 97.4% | 89.9% | 93.3% | 103% | 145% | 103% | 97.9%
5 | COc1ccc(-c2cc3c(C)nc(N)nc3n([C@H]3CC[C@H](OCCO)CC3)c2=O)cn1 | 0.114 µM | 0.21 µM | 0.504 µM | 0.202 µM | 0.0917 µM | 17.2 | 16 | 14.2 | 15.9 | 20.8 | 92.5% | 89.9% | 67.1% | 27.7% | 23.4% | 94% | 98.4% | 74.4% | 30% | 17% | 100% | 95% | 89.1% | 32.6% | 3.8% | 104% | 103% | 77.5% | 28.7% | 20.1% | 85.3% | 87.3% | 56% | 19.6% | 10%
6 | COc1cccc(OC)c1-c1ccc(C[C@H](NC(=O)c2c(Cl)cccc2Cl)C(=O)O)cc1 | > 10 µM | > 10 µM | > 10 µM | > 10 µM | > 10 µM | 0 | 0 | 0 | 0 | 0 | 85.9% | 90.1% | 97.6% | 94.4% | 108% | 92.2% | 96.2% | 91.8% | 99.9% | 107% | 103% | 96.5% | 98.5% | 97.8% | 93.4% | 91.7% | 104% | 91% | 99.5% | 99.3% | 104% | 90.9% | 105% | 96.9% | 108%
7 | COc1ccccc1NC(=O)OCC1CCN(C(=O)OC(C)(C)C)CC1 | > 10 µM | > 10 µM | > 10 µM | > 10 µM | > 10 µM | 0 | 0 | 0 | 0 | 0 | 89.2% | 96.2% | 101% | 97.9% | 97.9% | 97.4% | 102% | 99.8% | 99.2% | 95.2% | 96.8% | 99% | 94.4% | 99.1% | 94.7% | 111% | 108% | 100% | 94.5% | 104% | 108% | 102% | 94.5% | 109% | 108%
8 | C[C@H](NC(=O)Cc1cc(F)cc(F)c1)C(=O)N[C@@H]1C(=O)N(C)c2ccccc2-c2ccccc21 | > 10 µM | > 10 µM | > 10 µM | > 10 µM | > 10 µM | 0 | 0 | 0 | 0 | 0 | 89.5% | 88.6% | 93.1% | 94.3% | 96.7% | 100% | 98.7% | 97.1% | 102% | 109% | 94.8% | 96.8% | 90.9% | 91.5% | 93.1% | 112% | 95.7% | 102% | 98.2% | 98.6% | 106% | 89.5% | 90.6% | 97% | 94.9%
9 | Cc1c(CC(C)(C)C(=O)O)n(Cc2ccc(Cl)cc2)c2ccc(F)cc12 | > 10 µM | > 10 µM | > 10 µM | > 10 µM | > 10 µM | 0 | 0 | 0 | 0 | 0 | 91.9% | 106% | 98.5% | 97.6% | 99% | 98.3% | 97.5% | 95.2% | 101% | 108% | 98.7% | 99.4% | 103% | 96.4% | 99.7% | 97.2% | 109% | 93.7% | 112% | 110% | 104% | 102% | 96.1% | 95.9% | 88%
10 | Cc1cc(C(=O)Nc2cccc(C(=O)Nc3cccc(C(F)(F)F)c3)c2)on1 | > 10 µM | > 10 µM | > 10 µM | > 10 µM | > 10 µM | 0 | 0 | 0 | 1.5 | 0 | 96.2% | 96.6% | 89.5% | 101% | 105% | 100% | 99.4% | 96.7% | 97.3% | 103% | 99% | 99.3% | 94.8% | 104% | 104% | 103% | 92.3% | 109% | 92.9% | 79.1% | 93.7% | 99.8% | 99.7% | 102% | 99.8%
11 | Cc1nnsc1C(=O)Nc1ccc(-n2nc(C(F)(F)F)cc2C(F)(F)F)cc1 | > 10 µM | > 10 µM | > 10 µM | > 10 µM | > 10 µM | 0.2 | 0 | 0 | 0 | 0 | 93.4% | 83.8% | 105% | 87.2% | 85.1% | 95.9% | 96.2% | 94.7% | 97.8% | 95.6% | 99.9% | 97.9% | 100% | 100% | 99.1% | 94.5% | 98.8% | 105% | 107% | 90.9% | 101% | 98.4% | 95.2% | 104% | 99.9%
12 | N#Cc1ccc(-c2ccc(S(=O)(=O)Nc3cccc(N)n3)cc2)cc1 | > 10 µM | > 10 µM | > 10 µM | > 10 µM | > 10 µM | 0 | 0 | 0 | 1 | 0 | 87.9% | 95.5% | 95.4% | 96.7% | 91% | 97.4% | 96.3% | 95.9% | 93.9% | 90.8% | 101% | 97.2% | 101% | 99.4% | 95.1% | 100% | 98.3% | 104% | 97.6% | 79% | 99.6% | 104% | 98.9% | 107% | 104%
13 | Nc1nc2ccc(Cl)cc2c2nc(-c3ccco3)nn12 | > 10 µM | > 10 µM | > 10 µM | 0.297 µM | > 10 µM | 2.2 | 0.2 | 0 | 13.8 | 0.4 | 100% | 91.6% | 104% | 88.1% | 76.7% | 96.1% | 97.6% | 94.2% | 100% | 85.9% | 102% | 100% | 103% | 97.7% | 98.3% | 91.5% | 104% | 87.7% | 33.5% | 23.2% | 109% | 92.8% | 96.9% | 98.5% | 84.9%
14 | O=C(O)c1cc2cccc([N+](=O)[O-])c2[nH]1 | > 10 µM | > 10 µM | > 10 µM | > 10 µM | > 10 µM | 0 | 0 | 0 | 0 | 0 | 98% | 91.4% | 88.4% | 101% | 116% | 97.2% | 99.2% | 93.6% | 97.6% | 110% | 100% | 97.9% | 101% | 102% | 104% | 102% | 99.2% | 98.8% | 112% | 112% | 90.8% | 101% | 100% | 99.5% | 111%
